From patent US9980928B2, “Hydroxy aliphatic substituted phenyl aminoalkyl ether derivatives” (PROUS INSTITUTE FOR BIOMEDICAL RESEARCH, S.A., priority 2012, dated 2018)

System: mice
Assay: Forced swimming test in mice
Format: in vivo
Procedure: The antidepressant activity was determined using the forced swimming test described in Porsolt, R.-D. et al. Arch Int Pharmacodyn 1977, 229(2): 327-36.
Reduction in the duration of immobility by 50% or more relative to the control group indicates possible antidepressant activity. Also, one-way ANOVA followed by Dunnett's test was applied to compare the test compound-treated and vehicle control groups. Significance was considered to be P<0.05.

CNCCC(Oc1ccc(CCO)cc1)c1ccccc1.Cl (single isomer, unassigned) [Example 2, 2-[4-[3-(Methylamino)-1-phenylpropoxy]phenyl]ethanol hydrochloride]
antidepressant activity (duration of immobility) (30 mg/kg intraperitoneal, 60 minutes post-dosing): significant antidepressant activity | antidepressant activity (duration of immobility) (90 mg/kg p.o.): significant activity
